The values that follow come from patent US20240166643A1, “IMIDAZO[1,2-A]PYRIDINE COMPOUNDS AND THEIR USE IN THERAPY” (Imperial College Innovations Limited, priority 2020, published 2024).

In general, EC50 refers to the concentration at which the effect is half-maximal. As usually defined, the bioavailability is dose-corrected exposure relative to a reference, in per cent. As usually defined, the IC50 is the midpoint of a concentration-inhibition curve.

Data set [1] deals with BL-41 cells. Description: Metabolic activity assay (MTS assay) in BL-41 cell line. To be noted: Homo sapiens, 72 h. It is filed as cell-based. Background: Tetrazolium dyes change colour on reduction, which living cells bring about.
Data set [2] can be described thus: Rat clearance and bioavailability (iv and oral dosing). It is filed as in vivo. The settings on record: male, Sprague-Dawley, plasma; for half-life: read-out: Rat iv t1/2 (converted).
For data set [3], the system named is Plasmodium falciparum 3D7. Briefly: SYBR Green assay, Plasmodium falciparum strain 3D7. The data set is classed as cell-based. To be noted: P. falciparum strain 3D7, 96 h incubation, read-out: Pf EC50 strain 3D7.
Data set [4] is described as follows: in vitro. To be noted: male, Sprague-Dawley, rat, pooled cryopreserved rat hepatocytes, pH 7.4.
The target of data set [5] is Plasmodium vivax (Pv) NMT (Plasmodium vivax (strain Salvador I), UniProt A5K1A2). Briefly: biochemical.
Chain of Plasmodium vivax (Pv) NMT (A5K1A2 1-410): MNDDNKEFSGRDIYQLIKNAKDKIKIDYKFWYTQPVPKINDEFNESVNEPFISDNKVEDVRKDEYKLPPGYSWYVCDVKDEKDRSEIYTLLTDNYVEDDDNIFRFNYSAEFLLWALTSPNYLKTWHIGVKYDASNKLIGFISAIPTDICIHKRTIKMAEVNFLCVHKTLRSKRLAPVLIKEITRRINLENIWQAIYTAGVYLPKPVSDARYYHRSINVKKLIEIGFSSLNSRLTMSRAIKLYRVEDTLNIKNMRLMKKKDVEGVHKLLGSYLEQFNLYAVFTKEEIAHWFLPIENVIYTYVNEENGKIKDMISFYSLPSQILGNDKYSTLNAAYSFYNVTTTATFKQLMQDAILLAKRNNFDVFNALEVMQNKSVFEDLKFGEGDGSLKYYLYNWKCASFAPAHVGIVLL
Data set [6] concerns the target Human NMT1 (HsNMT1) (Homo sapiens, UniProt P30419). Description: biochemical.
Data set [7] has as its system Plasmodium falciparum strain NF54. Briefly: SYBR Green assay, Plasmodium falciparum strain NF54. The settings on record: NF54, read-out: Pf EC50 strain NF54.
The test system of data set [8] is SU-DHL-10 cells. Briefly: Cell cytotoxicity in SU-DHL-10 cell line (CellTiter-Glo). To be noted: Homo sapiens, SU-DHL10; CellTiter-Glo, 48 h; read-out: SU-DHL-10 EC50. The data set is classed as cell-based. On the technique in general: Cellular ATP, detected with luciferase, serves as a proxy for viable cell number.
For data set [9], the system named is DOHH-2 tumor cells. Description: Mouse xenograft, subcutaneous DOHH-2 Lymphoma Model. The settings on record: intraperitoneally 25 mg/kg twice a day for three days then four day no-dosing, cycle repeated three times, compared to vehicle. It is filed as in vivo. How it is done: Assay (i): Mouse Xenograft Protocol
The in vivo efficacy was assess in a subcutaneous xenograft DOHH-2 Lymphoma Model using Female 6-8 week old CB17/SCID Mice. […] The test compound administration started once the mean tumor size reached approximately 100-150 mm3. Compounds were administered either IP (vehicle 58% Na2HPO4 buffer (10 mM) (pH4.5)+40% PEG400+2% DMSO) or orally (vehicle Na2HPO4 buffer (10 mM) (pH 4.5)+0.2% tween 80). Tumor volumes were measured in two dimensions using a caliper, and the volume expressed in mm3 using the formula: V=(L×W×W)/2, where V is tumor volume, L is tumor length (the longest tumor dimension) and W is tumor width (the longest tumor dimension perpendicular to L).
Mice were dosed with Example 2 orally (50 mg/kg) once a day for 9 consecutive days (FIG. 5a), or Example 2 was dosed intraperitonally (25 mg/kg) in a cycle consisting of administration twice a day for three days followed by a four day no-dosing period (FIG. 5b). The cycle was repeated three times.
Mice were dosed with Example 129 intraperitonally (25 mg/kg) in a cycle consisting of administration twice a day for three days followed by a four day no-dosing period (Figure Sc). The cycle was repeated three times.
The protocol and any amendment(s) or procedures involving the care and use of animals in this study were reviewed and approved by the Institutional Animal Care and Use Committee (IACUC) of CrownBio prior to execution. During the study, the care and use of animals was conducted in accordance with the regulations of the Association for Assessment and Accreditation of Laboratory Animal Care (AAALAC).

Where [10] appears, read: iv 1 mg/kg, cassette dosing of 4 compounds.
Setting [11] is: oral 5 mg/kg, cassette dosing of 4 compounds.
Setting [12] is: iv 3 mg/kg, administered as a single compound.
[13] abbreviates: oral 30 mg/kg, administered as a single compound.

Like-named read-outs stand apart in the source and are kept apart here.

Chain of Human NMT1 (HsNMT1) (P30419 whole entry, looked up): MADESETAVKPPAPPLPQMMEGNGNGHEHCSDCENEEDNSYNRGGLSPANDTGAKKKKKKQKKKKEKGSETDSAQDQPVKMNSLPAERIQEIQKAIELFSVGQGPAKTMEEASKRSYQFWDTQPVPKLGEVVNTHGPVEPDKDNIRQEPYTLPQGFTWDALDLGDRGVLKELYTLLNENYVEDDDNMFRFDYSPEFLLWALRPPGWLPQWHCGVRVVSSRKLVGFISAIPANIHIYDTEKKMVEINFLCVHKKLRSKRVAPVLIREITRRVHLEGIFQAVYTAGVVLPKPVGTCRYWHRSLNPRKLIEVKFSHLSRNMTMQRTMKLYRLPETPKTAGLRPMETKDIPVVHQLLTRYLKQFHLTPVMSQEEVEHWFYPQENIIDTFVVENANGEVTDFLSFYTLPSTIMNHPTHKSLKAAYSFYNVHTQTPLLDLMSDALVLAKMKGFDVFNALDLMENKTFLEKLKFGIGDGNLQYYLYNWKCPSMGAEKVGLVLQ

With `CN1CCN(c2ncc(F)c(N3CC(C(=O)NC(C)(C)c4cnc5ccccn45)C3)n2)CC1` [Example 54], the 50% effective concentration (EC50) in data set [1] was 2310 nM; in [3] it was 160 nM. Also, the half-life in data set [2] (setting [10]) is 3.5 h. The compound also returned a bioavailability in data set [2] (setting [11]) of 33%. In addition, the half-life at 1 µM in [4] is more than 3 h. In data set [5], this compound displayed an IC50 of 6.2 nM.

`COc1cnc(N2CCCNCC2)nc1N1CC(C(=O)NC(C)c2c(C)nc3ccccn23)C1` (centres unmarked) [Example 23]: the IC50 worked out at 27 nM in [6] and 30 nM in data set [5]. Besides, the EC50 in data set [7] is 340 nM.

Turning to `O=C(NCc1cnc2ccccn12)C1CN(c2nc(N3CCNCC3)ncc2Cl)C1` [Example 25], the half-inhibitory concentration (IC50) in data set [5] turned out to be 15 nM. In addition, the EC50 in data set [7] turned out to be 1090 nM.

The compound `CN1CCCN(c2ncc(Cl)c(N3CC(C(=O)NCc4cnc5ccccn45)C3)n2)CC1` [Example 53] came in with a half-life at 1 µM in data set [4] of 0.4 h. In [5], this compound showed an IC50 of 5.8 nM. In [7], the EC50 turned out to be 260 nM.

Consider `CN(c1ncc(Cl)c(N2CC(C(=O)NC(C)(C)c3cnc4ccccn34)C2)n1)C1CCNC1` (centres unmarked) [Example 41], for which the IC50 in data set [6] was determined as 19 nM; in data set [5], 7.2 nM. Moreover, the EC50 in [7] came out at 45 nM.

As to `O=C(NCc1cnc2ccccn12)C1CN(c2nc(N3CCNCC3)ncc2F)C1` [Example 16], the half-life in data set [2] (setting [12]) was 5.9 h. The bioavailability in [2] (setting [13]) is 0.5%. Further, the half-life at 1 µM in [4] is more than 6.25 h. Moreover, the IC50 in [5] is 68 nM. Moreover, in data set [7], the EC50 was more than 5000 nM.

For `CC(C)(NC(=O)C1CN(c2nc(N3CCCNCC3)ncc2F)C1)c1cnc2ccccn12` [Example 11], the 50% effective concentration (EC50) worked out at 890 nM in [1] and 51 nM in data set [3]. Besides, the half-life in data set [2] (setting [12]) is 4.4 h. For the same compound, in data set [2] (setting [13]), the bioavailability was determined as 0.35%. This compound had a half-inhibitory concentration (IC50) in data set [5] of 14 nM.

In the case of `COc1cnc(N2CCN[C@@H](C)C2)nc1N1CC(C(=O)NC(C)(C)c2cnc3ccccn23)C1` [Example 39], the IC50 in [5] was 12 nM. For the same compound, the EC50 in data set [7] came to 85 nM.

Regarding `Cc1nc2ccccn2c1CNC(=O)C1CN(c2nc(N3CCCNCC3)ncc2Cl)C1` [Example 18], the IC50 was found to be 20 nM in [6] and 8.8 nM in data set [5]. For the same compound, the half-maximal effective concentration (EC50) in data set [7] turned out to be 2700 nM.

Consider `CC(NC(=O)C1CN(c2nc(N3CCCNCC3)ncc2Cl)C1)c1cnc2ccccn12` (centres unmarked) [Example 10], for which the values for the EC50 in data set [1] and in data set [3] were 240 nM and 510 nM, respectively. The compound also came in with a half-life at 1 µM in data set [4] of 2.03 h. Also, the 50% inhibitory concentration (IC50) came to 7.9 nM in [6] and 6.3 nM in data set [5].

Regarding `C[C@H]1CN(c2ncc(Cl)c(N3CC(C(=O)NCc4cnc5ccccn45)C3)n2)CCN1` [Example 27], in data set [5], the half-maximal inhibitory concentration (IC50) is 37 nM. Besides, the EC50 in data set [7] is 2820 nM.

Take `CN1CCCN(c2ncc(Cl)c(N3CC(C(=O)NC(C)(C)c4cnc5ccccn45)C3)n2)CC1` [Example 57]: the EC50 in [1] is 1250 nM; in [8], 203 nM; in [3], 49 nM. Besides, in [2] (setting [10]), the half-life was 6.6 h. In [2] (setting [11]), this compound registered a bioavailability of 6%. The compound also came in with a half-life at 1 µM in data set [4] of 2.52 h. The IC50 in data set [6] turned out to be 3.5 nM; in data set [5] it was 2.2 nM.

For the compound `O=C(NCc1cnc2ccccn12)C1CN(c2nc(N3CC4CNC4C3)ncc2F)C1` (centres unmarked) [Example 8], the IC50 was 1020 nM in data set [6] and 470 nM in [5]. Besides, the EC50 in data set [7] was more than 10000 nM.

Regarding `C[C@H]1CNCCN1c1ncc(Cl)c(N2CC(C(=O)NC(C)(C)c3cnc4ccccn34)C2)n1` [Example 129, (S)-1-(5-chloro-2-(2-methylpiperazin-1-yl)pyrimidin-4-yl)-N-(2-(imidazo[1,2-a]pyridin-3-yl)propan-2-yl)azetidine-3-carboxamide], the EC50 in data set [8] came to 6 nM. Further, the tumour volume result in data set [9] is listed as “significant decrease in tumour volume”. In addition, the IC50 in data set [6] stood at 2 nM.

Consider `CN(Cc1cnc2ccccn12)C(=O)C1CN(c2nc(N3CCCNCC3)ncc2Cl)C1` [Example 17], for which the results for the IC50 in data set [6] and in data set [5] were 360 nM and 140 nM, respectively. Also, in data set [7], the EC50 is more than 5000 nM.

As for `CN1CCN(c2ncc(Cl)c(N3CC(C(=O)NC(C)(C)c4cnc5ccccn45)C3)n2)CC1` [Example 55], the EC50 in data set [1] turned out to be 1070 nM; in [3], 64 nM. In addition, the half-life in data set [2] (setting [10]) is 3.1 h. In data set [2] (setting [11]), the bioavailability is 38%. For the same compound, the half-life at 1 µM in [4] came out at 2.33 h. In addition, in data set [5], 4.4 nM corresponded to half-maximal inhibition (IC50).

Regarding `CC(NC(=O)C1CN(c2nc(N3CCCNCC3)ncc2F)C1)c1cnc2ccccn12` (centres unmarked) [Example 9], the half-maximal inhibitory concentration (IC50) in data set [6] was determined as 79 nM; in data set [5], 41 nM. Moreover, the EC50 in [7] amounted to 2100 nM.

Regarding `Cc1nc2ccccn2c1CNC(=O)C1CN(c2nc(N3CC4CNC4C3)ncc2F)C1` (centres unmarked) [Example 13], the IC50 in data set [6] amounted to 380 nM; in [5], 660 nM. Moreover, the EC50 in data set [7] was more than 10000 nM.

With `COc1cnc(N2CCCNCC2)nc1N1CC(C(=O)NC(C)(C)c2cnc3ccccn23)C1` [Example 20], the EC50 in [1] came out at 1160 nM; in data set [3], 150 nM. The IC50 in data set [6] and in data set [5] was 16 nM each time.

On to `Cc1nc2ccccn2c1C(C)NC(=O)C1CN(c2nc(N3CCCNCC3)ncc2Cl)C1` (centres unmarked) [Example 24], for which the IC50 in [6] stood at 6.3 nM; in data set [5], 12 nM. The EC50 in data set [7] came out at 180 nM.

As to `Cc1nc2ccccn2c1CNC(=O)C1CN(c2nc(N3CCCNCC3)ncc2F)C1` [Example 12], the IC50 was determined as 130 nM in [6] and 200 nM in [5]. In addition, the EC50 in data set [7] is more than 2500 nM.

Turning to `CC(NC(=O)C1CN(c2nc(N3CCNCC3)ncc2F)C1)c1cnc2ccccn12` (centres unmarked) [Example 31], the values for the IC50 in data set [6] and in data set [5] were 180 nM and 19 nM, respectively. Besides, in data set [7], the EC50 came to 1300 nM.

For the compound `O=C(NCc1cnc2ccccn12)C1CN(c2nc(N3CCCNCC3)ncc2F)C1` [Example 6], the IC50 in data set [5] stood at 130 nM. Also, in data set [7], the EC50 was more than 10000 nM.

For `O=C(NCc1cnc2ccccn12)C1CN(c2nc(N3CC4CNC4C3)ncc2Cl)C1` (centres unmarked) [Example 7], the IC50 in data set [6] came out at 110 nM; in data set [5] it was 40 nM. In addition, the EC50 in data set [7] was 3200 nM.

For `CC(C)(NC(=O)C1CN(c2nc(N3CCCNCC3)ncc2Cl)C1)c1cnc2ccccn12` [Example 51], the values for the EC50 in data set [1] and in data set [3] were 80 nM and 28 nM, respectively. Moreover, the half-life in data set [2] (setting [12]) was 9.1 h. The compound also showed a bioavailability in data set [2] (setting [13]) of 0.07%. In addition, in data set [5], the IC50 came out at 5.3 nM.

`C[C@H]1CN(c2ncc(F)c(N3CC(C(=O)NCc4cnc5ccccn45)C3)n2)CCN1` [Example 26] returned an IC50 in [5] of 240 nM. The EC50 in data set [7] was more than 2330 nM.

In data set [5], `O=C(NCc1cnc2cc(Cl)ccn12)C1CN(c2nc(N3CCCNCC3)ncc2Cl)C1` [Example 22] yielded an IC50 of 3.8 nM. Further, the EC50 in data set [7] was 450 nM.
